Experimental data as given in patent US4020160A, “Cyclodextrin sulfate salts as complement inhibitors” (American Cyanamid Company, priority 1975, dated 1977).
Values joined by “and” are separate entries in the source; they are usually repeats but may differ in a detail not shown here. Equal entries are not always repeated. Structures can show the parent of a compound that is named as a salt.

What was measured:
whole complement = assay: Complement Level Reduction Test (serum of dosed guinea pigs, capillary tube assay); assay type: in vivo, guinea pig
[1] = test system: lethal shock by i.v. anti-Forssman antiserum; assay: Forssman Shock Test; assay type: in vivo; settings: guinea pig, at 200 mg/kg; Control=3.15 min
Protocol: This test measures the ability of activated human C1 to destroy fluid phase human C2 in the presence of C4 and appropriate dilutions of the test compound. An active inhibitor protects C2 from C1 and C4; (ii) Test, Code 035 (C3-C9 inhibitor) -- This test determines the ability of the late components of human complement (C3-C9) to lyse EAC 142 in the presence of appropriate dilutions of the test compound. […] The lesion is measured in terms of diameter, edema and hemorrhage and the extent to which a combined index of these is inhibited by prior intraperitoneal injection of the test compound at 200 mg/kg is then reported, unless otherwise stated; (v) Forssman Shock Test -- Lethal shock is produced in guinea pigs by an i.v. injection of anti-Forssman antiserum and the harmonic mean death time of treated guinea pigs is compared with that of simultaneous controls; (vi) Complement Level Reduction Test -- In this test, the above dosed guinea pigs, or others, are bled for serum and the complement level is determined in undiluted serum by the capillary tube method of U.S. Pat. No. 3,876,376 and compared to undosed control guinea pigs; and (vii) Cap 50 Test -- Here, appropriate amounts of the test compound are added to a pool of guinea pig serum in vitro, after which the undiluted serum capillary tube assay referred to above is run. […]

activated human C1 = target: T1, activated human C1 (Homo sapiens, UniProt P09871); assay: Test, Code 026 (C1 inhibitor); assay type: biochemical; settings: higher well number indicates higher activity, serial dilutions two-fold
T1 sequence (P09871 16-437 limits assumed): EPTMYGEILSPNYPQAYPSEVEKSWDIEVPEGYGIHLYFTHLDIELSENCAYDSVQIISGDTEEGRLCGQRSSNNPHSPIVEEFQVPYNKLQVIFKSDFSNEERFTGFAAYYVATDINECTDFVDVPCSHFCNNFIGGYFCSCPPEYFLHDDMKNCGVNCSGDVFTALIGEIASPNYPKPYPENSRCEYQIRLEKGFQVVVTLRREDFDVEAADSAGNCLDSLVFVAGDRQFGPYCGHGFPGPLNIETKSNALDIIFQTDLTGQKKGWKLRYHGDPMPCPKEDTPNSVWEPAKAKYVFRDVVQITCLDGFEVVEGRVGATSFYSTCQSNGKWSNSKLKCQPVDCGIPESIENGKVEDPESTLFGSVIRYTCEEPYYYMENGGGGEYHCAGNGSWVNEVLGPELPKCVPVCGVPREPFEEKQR
T1 sequence (P09871 438-688 limits assumed): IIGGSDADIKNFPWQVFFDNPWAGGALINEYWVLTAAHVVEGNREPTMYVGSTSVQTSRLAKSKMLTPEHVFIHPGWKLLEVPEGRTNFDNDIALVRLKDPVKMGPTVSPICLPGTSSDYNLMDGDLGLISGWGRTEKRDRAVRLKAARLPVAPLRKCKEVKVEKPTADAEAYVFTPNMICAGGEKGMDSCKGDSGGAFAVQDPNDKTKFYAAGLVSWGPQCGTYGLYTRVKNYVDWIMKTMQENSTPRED
Excerpt: (§1) This test measures the ability of activated human C1 to destroy fluid phase human C2 in the presence of C4 and appropriate dilutions of the test compound. An active inhibitor protects C2 from C1 and C4; (ii) Test, Code 035 (C3-C9 inhibitor) -- This test determines the ability of the late components of human complement (C3-C9) to lyse EAC 142 in the presence of appropriate dilutions of the test compound. An active inhibitor protects EAC 142 from lysis by human C3-C9; (iii) Test, Code 036 (C-Shunt inhibitor)-In this test human erythrocytes rendered fragile are lysed in autologous serum via the shunt pathway activated by cobra venom factor in the presence of appropriate dilutions of the test compound. Inhibition of the shunt pathway results in failure of lysis; (iv) Forssman Vasculitis Test -- Here, the well known complement dependent lesion, Forssman vasculitis, is produced in guinea pigs by intradermal injection of rabbit anti-Forssman antiserum. The lesion is measured in terms of diameter, edema and hemorrhage and the extent to which a combined index of these is inhibited by prior intraperitoneal injection of the test compound at 200 mg/kg is then reported, unless otherwise stated; (v) Forssman Shock Test -- Lethal shock is produced in guinea pigs by an i.v. injection of anti-Forssman antiserum and the harmonic mean death time of treated guinea pigs is compared with that of simultaneous controls; (vi) Complement Level Reduction Test -- In this test, the above dosed guinea pigs, or others, are bled for serum and the complement level is determined in undiluted serum by the capillary tube method of U.S. Pat. No. 3,876,376 and compared to undosed control guinea pigs; and (vii) Cap 50 Test -- Here, appropriate amounts of the test compound are added to a pool of guinea pig serum in vitro, after which the undiluted serum capillary tube assay referred to above is run. The concentration of compound inhibiting 50% is reported.

[2] = test system: shunt pathway activated by cobra venom factor; assay type: cell-based, human; settings: higher well number indicates higher activity; serial dilutions two-fold
Excerpt: as §1

[3] = test system: late components of human complement (C3-C9); assay: Test, Code 035 (C3-C9 inhibitor), lysis of EAC 142; assay type: biochemical; settings: higher well number indicates higher activity; serial dilutions two-fold
Excerpt: as §1

complement system = settings: reported in literature; cited from earlier work
[4] = reported in literature; cited from earlier work

β-Cyclodextrin polysulfate sodium salt
In vivo Activity (Guinea Pig) % Inhibition (whole complement; 100 mg/kg i.v., time 2'): 75%
In vivo Activity (Guinea Pig) % Inhibition (whole complement; 100 mg/kg i.v., time 30'): 45%
In vivo Activity (Guinea Pig) % Inhibition (whole complement; 100 mg/kg i.v., time 120'): 27%
In vivo Activity (Guinea Pig) % Inhibition (whole complement; 200 mg/kg i.p., time 30'): 49%
In vivo Activity (Guinea Pig) % Inhibition (whole complement; 200 mg/kg i.p., time 60'): 29%
In vivo Activity (Guinea Pig) % Inhibition (whole complement; 200 mg/kg i.p., time 120'): 67%
Forsmann Shock, harmonic mean death time [1]: > 90 min
026 (C1 inhibitor) activity, wells of a two-fold serial dilution assay (activated human C1; sodium salt): 12 wells and 11 wells and 10 wells

β-Cyclodextrin polysulfate potassium salt
036 (C-Shunt inhibitor) activity, wells of a two-fold serial dilution assay [2]: 6 wells
035 (C3-C9 inhibitor) activity, wells of a two-fold serial dilution assay [3]: Neg
026 (C1 inhibitor) activity, wells of a two-fold serial dilution assay (activated human C1): 10 wells

α-cyclodextrin polysulfate sodium salt
In vivo Activity (Guinea Pig) % Inhibition (whole complement; 100 mg/kg i.v., time 2'): 75%
In vivo Activity (Guinea Pig) % Inhibition (whole complement; 100 mg/kg i.v., time 30'): 56%
In vivo Activity (Guinea Pig) % Inhibition (whole complement; 100 mg/kg i.v., time 120'): 39%
In vivo Activity (Guinea Pig) % Inhibition (whole complement; 200 mg/kg i.p., time 30'): 71%
In vivo Activity (Guinea Pig) % Inhibition (whole complement; 200 mg/kg i.p., time 60'): 28%
In vivo Activity (Guinea Pig) % Inhibition (whole complement; 200 mg/kg i.p., time 120'): 72%
036 (C-Shunt inhibitor) activity, wells of a two-fold serial dilution assay [2]: 6 wells
035 (C3-C9 inhibitor) activity, wells of a two-fold serial dilution assay [3]: Neg
Forsmann Shock, harmonic mean death time [1]: 31.1 min
026 (C1 inhibitor) activity, wells of a two-fold serial dilution assay (activated human C1): 14 wells

α-Cyclodextrin polysulfate triethylammonium salt
036 (C-Shunt inhibitor) activity, wells of a two-fold serial dilution assay [2]: 3 wells and 5 wells
035 (C3-C9 inhibitor) activity, wells of a two-fold serial dilution assay [3]: Neg
026 (C1 inhibitor) activity, wells of a two-fold serial dilution assay (activated human C1): 11 wells

β-Cyclodextrin polysulfate triethylammonium salt
036 (C-Shunt inhibitor) activity, wells of a two-fold serial dilution assay [2]: 4 wells and 6 wells
035 (C3-C9 inhibitor) activity, wells of a two-fold serial dilution assay [3]: Neg
026 (C1 inhibitor) activity, wells of a two-fold serial dilution assay (activated human C1): 10 wells

Nc1ccc2cc(S(=O)(=O)O)cc(O)c2c1N=Nc1ccc(NC(=O)Nc2ccc(N=Nc3c(N)ccc4cc(S(=O)(=O)O)cc(O)c34)c(S(=O)(=O)O)c2)cc1S(=O)(=O)O [chlorazol fast pink, 3,3'-ureylenebis-[6-(2-amino-8-hydroxy-6-sulfo-1-naphthylazo)]benzenesulfonic acid tetrasodium salt]
anticomplementary effect (complement system): anticomplementary effect

NCCCCCC(=O)O [epsilon-aminocaproic acid]
treatment of hereditary angioneurotic edema [4]: used with success

heparin
anticomplementary effect (complement system): anticomplementary effect

NC[C@H]1CC[C@H](C(=O)O)CC1 [tranexamic acid]
treatment of hereditary angioneurotic edema [4]: used with success
